Type in all cases: functional, cell-based
Assay [1] deals with U-937. Put plainly: Antiproliferative activity against human U937 cells after 48 hrs by WST-8 assay. The note with it: U-937, 48 h. On the technique in general: Tetrazolium dyes change colour on reduction, which living cells bring about.
The subject of assay [2] is U-937. Nature of the assay: Antiproliferative activity against human U937 cells after 72 hrs by WST-8 assay. The note with it: U-937, 72 h.
In assay [3] the test system is U-937. Nature of the assay: Antiproliferative activity against human U937 cells after 24 hrs by WST-8 assay. The note with it: U-937, 24 h.

From ChEMBL document CHEMBL1139057, “Rotenoids and flavonoids with anti-invasion of HT1080, anti-proliferation of U937, and differentiation-inducing activity in HL-60 from Erycibe expansa” (Bioorg Med Chem, 2007) come the findings set out here.

Where only a bound is given, the exact number is not on record here.

A word on the IC50: it is the point on the concentration scale where inhibition reaches its midpoint. A higher IC50 goes with lower potency. Turning to `O=C1C=C2OC[C@H]3c4cc5c(cc4O[C@H]3[C@@]2(O)CC1)OCO5`, the IC50 in the assay with U-937 [1], in the assay on U-937 [2] and with U-937 [3] was > 100 µM throughout.

On to `COc1ccc([C@@H]2CCc3c(OC)cc(OC)cc3O2)cc1`, for which the IC50 turned out to be 21 µM in the assay with U-937 [1], 18 µM in the assay on U-937 [2] and 29 µM in the assay on U-937 [3].

For the molecule `COc1ccc2c(=O)c(-c3ccc(OC)c(OC)c3)coc2c1`, the IC50 in the assay on U-937 [1], in the assay on U-937 [2] and in the assay on U-937 [3] was > 100 µM each time.

Take `COc1ccc2c(c1)O[C@@H]1[C@H]2COC2=CC(=O)CC[C@@]21O`: the IC50 with U-937 [1], in the assay on U-937 [2] and with U-937 [3] was > 100 µM in each case.

For `COc1cc(OC)c2c(c1)O[C@H](c1ccc(O)cc1)CC2`, the IC50 in the assay on U-937 [1] was found to be 40 µM; in the assay on U-937 [2], 10 µM; in the assay with U-937 [3] it was 39 µM.

For the molecule `COc1cc(O)c(-c2coc3cc(O)ccc3c2=O)cc1OC`, the IC50 with U-937 [1] was 72 µM; with U-937 [2], 48 µM; with U-937 [3], > 100 µM.

Take `COc1cc(-c2coc3cc(O)cc(O)c3c2=O)ccc1O` [3'-O-METHYLOROBOL]: the IC50 in the assay on U-937 [1] stood at 85 µM; in the assay on U-937 [2], 74 µM; in the assay on U-937 [3], 68 µM.

`CC1(C)C=Cc2c(cc3occ(-c4ccc(O)cc4)c(=O)c3c2O)O1` [ALPINUMISOFLAVONE]: the IC50 with U-937 [1] was found to be 32 µM; with U-937 [2] it was 28 µM; in the assay on U-937 [3], 35 µM.

Consider `COc1ccc(-c2coc3cc(O)ccc3c2=O)cc1O` [CALYCOSIN], for which the IC50 is 48 µM in the assay with U-937 [1], 43 µM in the assay on U-937 [2] and 49 µM with U-937 [3].

For `CC[C@@]1(O)C(=O)OCc2c1cc1n(c2=O)Cc2cc3ccccc3nc2-1` [CAMPTOTHECIN], the IC50 in the assay with U-937 [1] came to 0.032 µM; in the assay with U-937 [2], 0.015 µM; with U-937 [3], 0.68 µM.

Take `CC1(C)C=Cc2c(cc(O)c3c(=O)c(-c4ccc(O)cc4)coc23)O1` [DERRONE]: the IC50 with U-937 [1] came out at 20 µM; in the assay on U-937 [2] it was 13 µM; in the assay on U-937 [3] it was 26 µM.

`O=C1C[C@@H](c2ccc(O)c(O)c2)Oc2cc(O)cc(O)c21` [ERIODICTYOL]: the IC50 with U-937 [1], in the assay with U-937 [2] and in the assay on U-937 [3] was > 100 µM in each case.

Regarding `COc1ccc([C@@H]2CCc3c(OC)cc(OC)cc3O2)c(O)c1` [ERYCEBENIN E], the IC50 with U-937 [1] came to 4.3 µM; in the assay on U-937 [2], 2.9 µM; in the assay on U-937 [3] it was 37 µM.

Regarding `CC(C)(O)[C@@H](O)Cc1c(O)cc2occ(-c3ccc(O)cc3)c(=O)c2c1O` [ERYCIBENIN A], the IC50 with U-937 [1] was determined as 25 µM; in the assay on U-937 [2] it was 21 µM; with U-937 [3] it was 46 µM.

Take `CC(C)(O)[C@@H](O)Cc1c(O)cc(O)c2c(=O)c(-c3ccc(O)cc3)coc12` [ERYCIBENIN B]: the IC50 in the assay on U-937 [1], in the assay with U-937 [2] and in the assay with U-937 [3] was > 100 µM in each case.

As to `COc1ccc2c(c1)OC[C@@]1(OC)c3cc4c(cc3O[C@@H]21)OCO4` [ERYCIBENIN C], the IC50 in the assay with U-937 [1], with U-937 [2] and in the assay with U-937 [3] was > 100 µM each time.

Turning to `COc1cc([C@H]2Oc3cc(O)ccc3C(=O)[C@@H]2O)ccc1O` [ERYCIBENIN D], the IC50 in the assay with U-937 [1], with U-937 [2] and in the assay on U-937 [3] was > 100 µM in each case.

With `COc1ccc([C@@H]2CCc3c(OC)cc(OC)cc3O2)c(OC)c1` [ERYCIBENIN F], the IC50 with U-937 [1], in the assay on U-937 [2] and in the assay with U-937 [3] was > 100 µM throughout.

Turning to `COc1ccc(-c2coc3cc(O)ccc3c2=O)cc1` [FORMONONETIN], the IC50 is 44 µM in the assay with U-937 [1], 45 µM with U-937 [2] and 50 µM in the assay with U-937 [3].

`COc1ccc2c(c1)O[C@H]1c3ccc(OC)cc3OC[C@@H]21` [HOMOPTEROCARPIN]: the IC50 with U-937 [1], in the assay with U-937 [2] and with U-937 [3] was > 100 µM in each case.

Take `COc1cc(O)cc2c1C(=O)O[C@@H](C)CCCCCCC2` [LASIODIPLODIN]: the IC50 with U-937 [1] stood at 28 µM; in the assay on U-937 [2], 20 µM; in the assay with U-937 [3], 36 µM.
